Test results published in a melting point compilation (Tetko et al.; mined from patent text by program, amines drawn as free bases though some values may be those of a salt).

Row | Structure (SMILES) | melting point [°C]
1 | O=C(N[C@H](Cc1ccc(C(F)(F)F)cc1)[C@@H](O)c1ccc(F)cc1F)c1ccc(F)c2ccccc12 (racemic) | 194 to 195
2 | O=C(O)c1ccccc1C(=O)c1ccccc1Cl | 112 to 116
3 | Cc1nc(-n2ccn(Cc3ccc(F)cc3)c2=O)sc1C(=O)NCc1cccnc1 | 158 to 159
4 | O=C1NNC(C=Cc2ccc([N+](=O)[O-])cc2)CS1 (stereo not drawn) | 231 to 240
5 | CC(=O)SC(CC(=O)c1ccc(C)cc1)C(=O)O (stereo not drawn) | 81 to 85
6 | CCCCCCCCCCOc1cc(OCCCCCCCCCC)cc(N2CC(=O)OC(=O)C2)c1 | 62
7 | CN(C)CCn1c(=O)sc2ccc(Cl)cc21 | 62.5 to 65.5
8 | CCCCC(=Nc1sc(Cl)cc1C(=O)NCCC)OC | 110 to 112
9 | CCc1nnc(Cc2ccc(NC(=O)/C=C/c3cnn(C)c3-c3ccc(F)cc3)cc2)o1 | 164 to 165
10 | COC(=O)CCCc1cc2nc(Cl)ccc2n1S(=O)(=O)c1ccc(C)c2ccccc12 | 118 to 120
11 | O=C1c2ccccc2S(=O)CC1(CO)CO (stereo not drawn) | 108 to 111
12 | NS(=O)(=O)c1cc2ccc(O)cc2[nH]1 | 194 to 195
13 | Cn1ccnc1S(=O)c1ccc(Cl)cc1 (stereo not drawn) | 96 to 97
14 | CN1CCN(c2ccc(Nc3nccc(-c4c[nH]nc4-c4ccc(Cl)cc4)n3)cc2)CC1 | 282 to 284
15 | O=c1oc(-c2cccc(-c3ccccc3)c2)cc(O)c1SCCc1ccccc1 | 93 to 94
16 | CS(=O)(=O)C(Cl)(Cl)C(=O)c1ccccc1Cl | 81 to 82
17 | COc1ccc2[nH]c(S(=O)Cc3ncc(F)c(N4CCOCC4)c3C)nc2c1 (stereo not drawn) | 158 to 160
18 | COC(=O)CC(=O)c1cc(F)c(F)c(F)c1F | 68 to 72
19 | COc1ccc(-c2cc(C(=O)NCc3ccccn3)c(=O)n(CC3CC3)n2)cc1 | 98.6 to 99.3
20 | CCCCCCCCCCCCOC(=O)c1cc(C(C)(C)C)c(OC(=O)c2cc(C(C)(C)C)c(O)c(C(C)(C)C)c2)c(C(C)(C)C)c1 | 53 to 56
21 | O=C1NC[C@@H](c2ccccc2)O1 | 86 to 87
22 | COc1ccc(CCNC(=S)N2CCN(c3ncnc4cc(OC)c(OC)cc34)CC2)cc1OC | 98 to 100

Row | Structure (SMILES) | melting point [°C]
23 | CCN(CCOc1cccnc1F)CCN1C(=O)c2ccccc2C1=O | 58 to 60
24 | CCOC(=O)C1(c2ccccc2)CCN(CC(=O)O)CC1 | 148 to 150
25 | O=C(Nc1ccc(-n2nc(C(F)(F)F)cc2-c2cccnc2)cc1)c1ccccc1F | 138 to 140
26 | CC(C)NCC(O)COc1cccnc1 (stereo not drawn) | 84 to 87
27 | CCc1cc(CCc2nc3ccccc3o2)c(=O)[nH]c1C | 155 to 156
28 | Nc1ccc(-c2cccc(C(F)(F)F)c2)nn1 | 138 to 139
29 | Cc1cccc(CC(=O)c2ccnc(-c3ccc(OC(F)(F)F)cc3)c2)n1 | 60
30 | CCc1cn2ccccc2c1S(=O)(=O)c1ccc(OS(=O)(=O)c2ccc(C)cc2)c(C)c1 | 164
31 | CCOC(=O)Cc1c(C2CCCCC2)nn(-c2ccccc2)c1-c1ccccc1 | 176 to 178
32 | O=[N+]([O-])C=C1NCCCS1 | 76 to 78
33 | O=C(NC1CCC(CCN2CCN(c3nccc4c3OCC4)CC2)CC1)C1CCCO1 (racemic) | 145
34 | CCc1cc(C#N)c(Cl)nc1C | 63 to 64
35 | N#CCCCOc1cccc(OCc2ccc3ccccc3n2)c1 | 84 to 85
36 | CCOc1ccc(N2CCN(Cc3c[nH]c4ncccc34)CC2)cc1 | 179 to 180
37 | O=C(c1ccccc1)c1ccc(CP(=O)(O)O)cc1 | 172 to 175
38 | CC(C)NC(=O)c1c(NC(=O)c2cc(C(F)(F)F)nn2-c2ncccc2Cl)c(C#N)cc2cn[nH]c12 | 226 to 229
39 | OCc1ncccc1OCc1ccccc1 | 78.7 to 79.2
40 | CCOc1cc2c(Nc3cc(OC)c(Cl)cc3Cl)c(C#N)cnc2cc1F | 184 to 186
41 | CC1(COCCCOc2ccc(C(=O)O)cc2)COC1 | 102
42 | CC(C)(C)OC(=O)Nc1ccc(-c2ccoc2)cc1[N+](=O)[O-] | 105 to 110
43 | CN(c1ccc(S(C)(=O)=O)cc1)S(=O)(=O)c1cccc(NC(=O)c2ccc(S(C)(=O)=O)cc2)c1 | 213 to 215

Continued, values first:

Row | melting point [°C] | Structure (SMILES)
44 | 155 to 158 | CCC(OC(=O)CCNC(=O)OC(C)(C)C)c1cc2n(c(=O)c1C)Cc1cc3ccccc3nc1-2 (stereo not drawn)
45 | 148 to 149 | Cc1oc(-c2ccccc2)nc1CCOc1ccc(Cn2cc(CC(=O)O)c(-c3ccccc3)n2)cn1
46 | 194 to 195 | COc1ccc(CCN2CCC(NC(=O)c3ccccc3)CC2)cc1OC
47 | 129 | O=S1(=O)NCCOc2ccc(Br)cc21
48 | 62 to 65 | O=C(Nc1ccc(C(F)(F)F)cc1)Nc1cccc(S(=O)(=O)NCCN2CCOCC2)c1
49 | 61 | Cc1nc(N=CN(C)C)nc(N(C)C)n1
50 | 59 to 66 | CC(C)C[C@H](NC(=O)OC(C)(C)C)C(=O)N1CCN(C(c2ccc(F)cc2)c2ccc(F)cc2)CC1
51 | 183 to 186 | Cc1cccc2[nH]c3c(c(C)nn3-c3ccccn3)c(=O)c12
52 | 218 to 219 | CC(=O)c1cccc(C(=O)NC(Nc2c(Nc3cccnc3)c(=O)c2=O)C(C)(C)C)c1 (stereo not drawn)
53 | 153 to 155 | O=C(O)C=CC(=O)c1ccco1
54 | 143 to 145 | Fc1ccc(CC(c2ccccc2)C(F)(F)F)cc1 (stereo not drawn)
55 | 208 to 209 | CON=C(C(=O)Nc1ccc(C(=O)O)cc1)c1ccc2c(c1)C(C)(C)CCC2(C)C
56 | 199 to 202 | COc1cc(C)nc(NC(=O)NS(=O)(=O)c2ccccc2-c2ccccc2)n1
57 | 136 to 138 | CN(C)C=Nc1c(Cl)cc(N=Cc2cccc(Br)c2)cc1Cl
58 | 130 | OC1CSC(Oc2cccnc2-c2cccs2)C(O)C1O (stereo not drawn)
59 | 149 to 150 | CC1(C)CCC(C)(C)c2cc(OCc3ccc(C#N)cc3)ccc21
60 | 139 to 140 | CCOC(=O)c1cccc(C=C(C(=O)O)c2ccccc2)c1
61 | 199 to 200 | NS(=O)(=O)c1cc(C(=O)O)cc(OCc2ccccc2)c1-c1ccccc1
62 | 207 to 208 | O=S(=O)(Cc1ccccc1)N1CCC(c2ccc(O)cc2O)CC1
63 | 60 to 63 | CNCCN1CCn2c1nc1ccccc12
64 | 194 | NNC(=O)CCCCCCCCOC1OC(CO)C(O)C(O)C1O (stereo not drawn)
65 | 240 to 242 | O=C(NNc1nc(C(F)(F)F)nc(-c2ccncc2)c1-c1ccc(F)cc1)C(F)(F)F
66 | 166 | COc1c(C(C)(C)C)cc([PH](=O)c2cc(C(C)(C)C)c(OC)c(C(C)(C)C)c2)cc1C(C)(C)C
67 | 146 | Nc1cc(=O)n(Cc2ccccc2F)[nH]1
68 | 154 to 157 | Clc1ccc(CNc2nc(Cl)cc(Cl)n2)cc1
69 | 216 to 217 | O=C(Cl)c1ccc(-c2ccc(C(=O)Cl)cn2)nc1
70 | 104 to 107 | CCCc1c(OCCCOc2ccc3ccc(OCC(=O)OC)cc3c2C(C)=O)ccc(C(C)=O)c1O
71 | 92 to 93 | Cc1oc(-c2cccc(Br)c2)nc1CCO
72 | 78 to 79 | OCCc1ccc(Oc2cc(C(F)(F)F)ccn2)cc1
73 | 247 to 248 | Nc1ccc(C(=O)NC2CCN(CCCn3cnc4c(N)ncnc43)CC2)cc1
